Assay results as given in PMC12254266, “Multicolored sequential resonance energy transfer for detection of simultaneous ligand binding at G protein-coupled receptors” (Nature Communications, 2025).
“And” between values parts separate entries of the source, which are not always exact repeats. Identical values can stand only once.

Tests used:
FFA1 = FFA1 (Homo sapiens, UniProt O14842); experiment: Ca2+ mobilisation (Fura2) in Flp-In T-REx 293 cells expressing Nluc-FFA1, FFA1-Nluc or untagged FFA1; type: cell-based; parameters: expressed in transfected cells; settings: for pEC50: Ca2+ data, mean±SEM; for pEC50 / EMax: NR = No response; for EMax: percentage of response to 10 μM T360; for Ca2+ Response as a % of T360 Response: single technical replicates
Method: Nluc-FFA1, FFA1-Nluc or untagged FFA1 Flp-In T-REx 293 cells were plated at 50,000 cells per well in poly-D-lysine coated black clear bottom 96-well plates. Cells were then cultured for 24 h until reaching confluency before culture medium was replaced with medium containing 100 ng/mL of doxycycline to induce receptor expression. Cells were cultured for a further 24 h before the assay. On the day of the assay culture medium was removed and replaced with medium containing 3 μM Fura2-AM Ca^2+ dye. […] Fura2 fluorescent emission at 520 nm following excitation with each of 340 and 380 nm was measured in regular intervals both before and after adding test compounds for a total of 90 s per well. Calcium responses were determined by taking the peak 340/380 ratio after first subtracting the ratios obtained prior to addition of test compound.

FFA1-Nluc = FFA1-Nluc (Homo sapiens, UniProt O14842); experiment: DISCo-BRET (endpoint, spectra scan, kinetics) with TUG-2591 and TUG-2597 at C terminal Nluc tagged FFA1; type: binding; parameters: expressed in transfected cells; settings: for Specific BRET (690/540), % of control: Figure 4Aiii; for Specific BRET (690/540), % of control / Specific BRET (540/450), % of control: single replicate values (technical duplicate); for Specific BRET (540/450), % of control: Figure 4Biii
Method: Nluc-FFA1 or FFA1-Nluc Flp-In T-REx 293 cells were plated at 50,000 cells per well in poly-D-lysine coated white 96-well plates. Cells were cultured for 24 h in the plate before medium was replaced with medium containing 100 ng/mL of doxycycline to induce receptor expression. After culturing for a further 24 h, culture medium was removed, cells washed with HBSS and incubated in HBSS for 30 min. For all DISCo-BRET formats Nano-Glo substrate was then added at a 1:800 final dilution and cells incubated for 10 min. Following substrate addition experimental set up different among the three formats: endpoint, spectra scan, and kinetics.
For endpoint experiments all fluorescent and unlabelled ligands were added to the cells and incubated for 5 min at 37 °C. Luminescent emission was then measured using a CLARIOstar microplate reader with monochromator set at 450–60 nm (Nluc), 540−60 nm (NBD) and 690–100 nm (SulfoCy5). BRET ratios were then calculated as either SulfoCy5 emission divided by NBD emission, SulfoCy5 emission divided by Nluc emission, or NBD emission divided by Nluc emission.
For spectra scan experiments all indicated fluorescent and unlabelled ligands were added to the cells and cells incubated for 5 min at 37 °C. Luminescence emissions were then measured from each well of the plate from 440 nm – 740 nm with a 5 nm resolution using a CLARIOstar microplate. Luminescent emission spectra were then normalised as a percentage of the maximal Nluc emission peak ( ~ 460 nm), then subtracted with the spectrum obtained in the presence of high concentrations of ligands competing for both binding sites to obtain specific BRET binding spectra.
In kinetic DISCo-BRET experiments plates were placed directly in a CLARIOstar plate reader set to 25 °C 10 min after Nano-Glo substrate addition. Luminescent measurements were then taken with three sequential measurements per well with the monochromator set to 450–60 nm (Nluc), 540 - 60 nm (NBD) and 690–100 nm (SulfoCy5) taken in 20 or 30 s intervals. After 5 min of background measurements, the plate reader was paused for the first indicated fluorescent ligand(s) addition, before immediately returning the plate to the reader to continue luminescence readings. After 5 min, the reader was again paused to add the second fluorescent ligand (association assays) or competing ligand(s) (dissociation assays), before immediately continuing the measurements for the indicated time. Non-specific control binding was obtained by adding the indicated competing ligand(s) 5 min prior to the addition of the first fluorescent ligand.

Chain of FFA1 (O14842 whole entry): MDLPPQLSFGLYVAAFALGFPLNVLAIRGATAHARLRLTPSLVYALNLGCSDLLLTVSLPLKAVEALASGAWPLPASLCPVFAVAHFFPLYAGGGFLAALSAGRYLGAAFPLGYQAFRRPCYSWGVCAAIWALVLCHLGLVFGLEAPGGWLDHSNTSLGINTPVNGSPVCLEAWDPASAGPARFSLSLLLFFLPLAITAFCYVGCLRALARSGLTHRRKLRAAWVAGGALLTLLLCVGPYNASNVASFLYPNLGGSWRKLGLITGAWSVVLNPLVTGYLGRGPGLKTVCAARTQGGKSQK
Chain of FFA1-Nluc (O14842 whole entry): as above

COc1ccc(C(=O)N(CC(C)(C)CNC(=O)OC(C)(C)C)c2ccccc2)c(N2CCC(COc3cccc(C(CC(=O)O)C4CC4)c3)CC2)c1.O=C(O)C(F)(F)F (stereo not shown) [TUG-2467]
pEC50 (FFA1): 6.78±0.02
EMax (FFA1): 124±9%

COc1ccc(C(=O)NCC(C)(C)CNC(=O)OC(C)(C)C)c(N2CCC(COc3cccc(C(CC(=O)O)C4CC4)c3)CC2)c1.Cl (stereo not shown) [TUG-2457]
pEC50 (FFA1): 6.62±0.15
EMax (FFA1): 108±3%

COc1ccc(C(=O)N(CC(C)(C)CNc2ccc([N+](=O)[O-])c3nonc23)c2ccccc2)c(N2CCC(COc3cccc(C(CC(=O)O)C4CC4)c3)CC2)c1.O=C(O)C(F)(F)F (stereo not shown) [TUG-2490]
pEC50 (FFA1): 5.95±0.16
Ca2+ Response as a % of T360 Response (FFA1; log[Ligand] -5.5): 93.1455% and 77.9850% and 75.8107% and 96.4232% and 72.2793% and 68.6021%
Ca2+ Response as a % of T360 Response (FFA1; log[Ligand] -6): 53.6775% and 46.6859% and 50.0991% and 72.4727% and 32.6717% and 50.6607%
Ca2+ Response as a % of T360 Response (FFA1; log[Ligand] -6.5): 16.7030% and 15.2768% and 30.6910% and 52.9860% and 26.5604% and 17.0828%
Ca2+ Response as a % of T360 Response (FFA1; log[Ligand] -7): -0.5150% and -0.6020% and 9.0880% and 4.0961% and 1.0500% and 13.2109%
Ca2+ Response as a % of T360 Response (FFA1; log[Ligand] -8): -0.3253% and 0.1971% and 2.2527% and 3.6975% and -0.7574% and 0.7574%
Ca2+ Response as a % of T360 Response (FFA1; log[Ligand] -9): 3.6767% and 1.4233% and -0.8955% and -4.2309% and 0.8739% and -0.0879%

CCCN1C(=O)c2ccccc2[C@@H](C(=O)O)[C@@H]1c1ccc(OCc2cccc(C(F)(F)F)c2)cc1 [TUG-2743]
pIC50 DISCo-BRET NBD/Nluc (FFA1-Nluc; 100 nM TUG-2591 and […] TUG-2597, NC = No competition): 6.1±0.2
pIC50 DISCo-BRET SulfoCy5/NBD (FFA1-Nluc; 100 nM TUG-2591 and […] TUG-2597, one site model, NC = No competition): 6.0±0.1
Specific BRET (690/540), % of control (FFA1-Nluc; log[Ligand] -5): 6.26 % of control and 15.30 % of control and 0.00 % of control and 23.39 % of control and 7.57 % of control and 16.15 % of control and 4.80 % of control and 5.42 % of control
Specific BRET (540/450), % of control (FFA1-Nluc; log[Ligand] -5): 61.42 % of control and 37.32 % of control and -37.32 % of control and -3.93 % of control and 3.93 % of control and 54.66 % of control and 43.23 % of control
Specific BRET (690/540), % of control (FFA1-Nluc; log[Ligand] -5.5): 25.12 % of control and 40.23 % of control and 23.90 % of control and 52.64 % of control and 8.58 % of control and 35.72 % of control and 22.62 % of control and 24.58 % of control
Specific BRET (540/450), % of control (FFA1-Nluc; log[Ligand] -5.5): 68.58 % of control and 86.33 % of control and -8.16 % of control and -102.04 % of control and 41.80 % of control and 13.93 % of control and 39.36 % of control and 39.62 % of control
Specific BRET (690/540), % of control (FFA1-Nluc; log[Ligand] -6): 58.42 % of control and 58.33 % of control and 46.92 % of control and 53.66 % of control and 32.09 % of control and 48.03 % of control and 43.57 % of control and 46.72 % of control
Specific BRET (540/450), % of control (FFA1-Nluc; log[Ligand] -6): 100.93 % of control and 79.17 % of control and 5.25 % of control and 9.91 % of control and 41.19 % of control and 34.87 % of control and 62.06 % of control
Specific BRET (690/540), % of control (FFA1-Nluc; log[Ligand] -6.5): 76.32 % of control and 72.57 % of control and 71.58 % of control and 84.17 % of control and 56.21 % of control and 64.88 % of control and 65.73 % of control and 61.96 % of control
Specific BRET (690/540), % of control (FFA1-Nluc; log[Ligand] -7): 89.22 % of control and 91.72 % of control and 94.47 % of control and 101.84 % of control and 86.98 % of control and 84.36 % of control and 91.26 % of control and 83.54 % of control
Specific BRET (540/450), % of control (FFA1-Nluc; log[Ligand] -7): 106.08 % of control and 110.38 % of control and 76.97 % of control and 86.30 % of control and 79.83 % of control and 51.81 % of control and 67.53 % of control and 67.76 % of control
Specific BRET (690/540), % of control (FFA1-Nluc; log[Ligand] -8): 93.65 % of control and 94.71 % of control and 131.47 % of control and 106.17 % of control and 87.89 % of control and 98.79 % of control and 100.59 % of control and 92.67 % of control
Specific BRET (540/450), % of control (FFA1-Nluc; log[Ligand] -8): 118.40 % of control and 124.70 % of control and 235.57 % of control and 32.65 % of control and 76.75 % of control and 53.35 % of control and 80.89 % of control and 68.94 % of control
Specific BRET (690/540), % of control (FFA1-Nluc; log[Ligand] -9): 99.33 % of control and 100.67 % of control and 26.06 % of control and 102.35 % of control and 91.83 % of control and 93.74 % of control
Specific BRET (540/450), % of control (FFA1-Nluc; log[Ligand] -9): 129.56 % of control and 130.71 % of control and -41.98 % of control and 129.45 % of control and 107.24 % of control and 49.50 % of control and 87.02 % of control and 76.46 % of control
'bottom' of the IC50 curve, DISCo-BRET NBD/Nluc (FFA1-Nluc; percentage of binding obtained in the absence of competing ligand): 10%
'bottom' of the IC50 curve, DISCo-BRET SulfoCy5/NBD (FFA1-Nluc; percentage of binding obtained in the absence of competing ligand, 100 nM TUG-2591 and […] TUG-2597): 3.2%
pKi DISCo-BRET SulfoCy5/NBD (FFA1-Nluc; using Kd TUG-2591 57 nM): 6.5±0.1

COc1ccc(C(=O)NCC(C)(C)CNc2ccc([N+](=O)[O-])c3nonc23)c(N2CCC(COc3cccc(C(CC(=O)O)C4CC4)c3)CC2)c1.O=C(O)C(F)(F)F (stereo not shown) [TUG-2489]
pEC50 (FFA1): 5.29±0.04
Ca2+ Response as a % of T360 Response (FFA1; log[Ligand] -5): 102.5277% and 96.3666% and 102.3411% and 80.8186% and 76.8959%
Ca2+ Response as a % of T360 Response (FFA1; log[Ligand] -5.5): 75.8584% and 55.2490% and 64.4948% and 77.9746% and 61.7732% and 62.6510%
Ca2+ Response as a % of T360 Response (FFA1; log[Ligand] -6): 11.4043% and 15.1652% and 19.0434% and 4.1691% and 0.1177% and 9.7037%
Ca2+ Response as a % of T360 Response (FFA1; log[Ligand] -6.5): 0.7033% and -0.7918% and -3.1732% and -6.5594% and 0.0827% and 3.4744%
Ca2+ Response as a % of T360 Response (FFA1; log[Ligand] -7): -3.1258% and 4.2395% and 1.6831% and -3.2821% and -0.2376% and 1.2224%
Ca2+ Response as a % of T360 Response (FFA1; log[Ligand] -8): -0.4995% and 5.1700% and -1.2657% and 6.6097% and 0.3774% and -0.3774%
Ca2+ Response as a % of T360 Response (FFA1; log[Ligand] -9): 0.4589% and 3.5934% and -2.5884% and -5.3677% and 0.8677% and 2.5453%
